Experiment [1] deals with ON2m (DNA, single strand) AAGTTTCCGACTCCCCCAGGTGCCTTTGAA
Description: luminescence enhancement. The note with it: ON2m used in place of ON2 in adenosine assay; 80 μM adenosine.

The test system of experiment [2] is central loop, 5'-G3T3G3TnG3T3G3-3', n = 1 (DNA, G4) GGGTTTGGGTGGGTTTGGG
Description: luminescence enhancement. Conditions: 1 μM compound; 2.4-fold enhancement.

For experiment [3], the system named is CCR5-DEL (DNA, single strand) CTCATTTTCCATACATTAAAGATAGTCAT
The experiment is described as follows: luminescence enhancement. The note with it: 20 mM Tris-HCl pH 7.4; 1 μM compound, 5 μM DNA.

Experiment [4] relates to central loop, 5'-G3T3G3TnG3T3G3-3', n = 15 (DNA, G4) GGGTTTGGGTTTTTTTTTTTTTTTGGGTTTGGG
The experiment is described as follows: luminescence enhancement. The note with it: 1 μM compound; 8.3-fold enhancement.

For experiment [5], the system named is F10T (DNA, hairpin, HEG linker between nt 8 and 9) TATAGCTATATAGCTATAT
The experiment is described as follows: FRET melting. The note with it: 0.2 μM DNA; 3 μM compound.

Experiment [6] has as its system ds17 (DNA, duplex) CCAGTTCGTAGTAACCC/GGGTTACTACGAACTGG
The experiment is described as follows: G4-FID (thiazole orange displacement). Conditions: Tris-HCl buffer; thiazole orange displaced; 0.25 μM DNA; under 50% displaced at highest concentration tested.

Experiment [7] concerns F21T (DNA, G4) GGGTTAGGGTTAGGGTTAGGG
Description: FRET melting. Conditions: 0.2 μM DNA; 3 μM compound.

Experiment [8] concerns 3'-side loop, 5'-G3T3G3T3G3TnG3-3', n = 15 (DNA, G4) GGGTTTGGGTTTGGGTTTTTTTTTTTTTTTGGG
Description: luminescence enhancement. Conditions: 1 μM compound; 7.2-fold enhancement.

In experiment [9] the test system is 5'-side loop, 5'-G3TnG3T3G3T3G3-3', n = 1 (DNA, G4) GGGTGGGTTTGGGTTTGGG
The experiment is described as follows: luminescence enhancement. Conditions: 1 μM compound; 2.7-fold enhancement.

Experiment [10] relates to ON2 (DNA, G4) GGGTTTGGGACTCCCCCAGGTGGGTTTGGG
Description: G4-FID (thiazole orange displacement). The note with it: Tris-HCl buffer; thiazole orange displaced; 0.25 μM DNA.

Experiment [11] has as its system 5'-side loop, 5'-G3TnG3T3G3T3G3-3', n = 15 (DNA, G4) GGGTTTTTTTTTTTTTTTGGGTTTGGGTTTGGG
Description: luminescence enhancement. Conditions: 1 μM compound; 6.9-fold enhancement.

In experiment [12] the test system is 3'-side loop, 5'-G3T3G3T3G3TnG3-3', n = 1 (DNA, G4) GGGTTTGGGTTTGGGTGGG
The experiment is described as follows: luminescence enhancement. Conditions: 1 μM compound; 2.3-fold enhancement.

Experiment [13] concerns ON1 (adenosine aptamer) (DNA, aptamer) ACCTGGGGGAGTATTGCGGAGGAAGGT
Description: luminescence displacement assay (complex 1/ON1/ON2). The note with it: 100 mM NaCl, 10 mM MgCl2, 75 mM K+, 20 mM Tris-HCl pH 7.4, 37 °C.

Where [14] appears, read: ON2 capture strand, 200 μM highest tested.

Consider five compounds from PMC4726048 (2016).

As to `Cc1cccnc1-c1[c-]cccc1.Cc1cccnc1-c1[c-]cccc1.[Ir+3].c1ccc(-c2ccc3ccc4ccc(-c5ccccc5)nc4c3n2)cc1`, the binding entry in [1] is reported as “weak”; in [2], “yes”; in experiment [3], “weak”; in experiment [4], “yes”; in experiment [6], “weak”; in experiment [8], “yes”. Further, the binding result in [9], in experiment [11] and in experiment [12] was “yes” throughout. Also, the ΔTm in experiment [5] was 3.0 °C; in experiment [7], ~ 7.0 °C. The same compound displayed a G4DC50 in [10] of 7.0 µM.

For `Nc1ccn([C@@H]2O[C@H](CO)[C@@H](O)[C@H]2O)c(=O)n1`, the binding entry in experiment [13] (setting [14]) is given as “no”.

As for `Nc1nc2c(ncn2[C@@H]2O[C@H](CO)[C@@H](O)[C@H]2O)c(=O)[nH]1`, in experiment [13] (setting [14]), the binding result was “no”.

`Nc1ncnc2c1ncn2[C@@H]1O[C@H](CO)[C@@H](O)[C@H]1O`: the binding result in [13] (ON2 capture strand displaced) was “yes”.

Consider `O=c1ccn([C@@H]2O[C@H](CO)[C@@H](O)[C@H]2O)c(=O)[nH]1`, for which, in [13] (setting [14]), the binding result was “no”.

Usually ΔTm stands for the shift of the melting midpoint relative to a reference.
